Measured values reported in US20130281512A1, “AGENTS FOR TREATING DISORDERS INVOLVING MODULATION OF RYANODINE RECEPTORS” (LES LABORATOIRES SERVIER, priority 2012, published 2013).

How the values were obtained:
[1] = Metabolic stability in rat hepatic microsomes (Clint, predicted MF %); type: in vitro ADME; details: for Clint_mic rat (in vitro intrinsic clearance): 10^-7 M, 0.33 mg protein/ml, NADPH; for MF mic % (metabolic bioavailability): predicted from Clint assuming total absorption
Description: (§1) Compound solubilization: Stock solutions were made in DMSO, and working solutions in water containing 1 mg/ml BSA.
(§2) Prediction of metabolic bioavailability: Metabolic bioavailability predictions (MF %) were based on in vitro metabolic stability measurements with hepatic microsomes assuming total absorption. Briefly, unchanged drugs were quantified by LC-MS-MS following incubation (10^−7M) with rat and human hepatic microsomes (0.33 mg protein/ml) after 0, 5, 15, 30 and 60 min of incubation in presence of NADPH (1 mM). Enzymatic reaction was stopped with methanol (v/v) and proteins were precipitated by centrifugation. The in vitro intrinsic clearances (Clint_mic) expressed as ml/min/g protein were the slope (after LN linearization) of the unchanged drug remaining concentration versus incubation time. In vitro Clint were then scaled up to in vivo whole body (vivoClint) using 0.045 mg prot/kg of liver and liver weight of 11 g for the rat and 1.2 kg for Man.

[2] = Metabolic stability in human hepatic microsomes (Clint, predicted MF %); type: in vitro ADME; details: for Clint_mic man (in vitro intrinsic clearance): 10^-7 M, 0.33 mg protein/ml, NADPH; for MF mic % (metabolic bioavailability): predicted from Clint assuming total absorption
Description: as §1, §2

rat hepatocytes = assay: Metabolic stability in rat hepatocytes; type: in vitro ADME; details: for Clint: 6.00E+05 cells/ml, 10^-7 M
Description: (§3) Compound solubilization: Stock solutions were made in DMSO, and working solutions in William medium containing 1/10 rat plasma or 1/4 human plasma.
(§4) Metabolic stability determination: Compounds were incubated at 10^−7 M with isolated hepatocytes (6E+5 cells/ml for rat hepatocytes and 4E+5 cells/ml for human hepatocytes) at 37° C. in plasma from the same species diluted in Wiliams medium (1/10 dilution for rat and 1/4 dilution for human). Sampling times were performed at 0, 10, 20, 30, 60 and 120 min and enzymatic reaction stopped with methanol (v/v). Proteins were precipitated by centrifugation and the supernatant was analyzed by LC/MS/MS. Clint expressed as ml/min/g protein were calculated as for hepatic microsomes using a ratio of 0.134 mg protein/ml for 4E+5 cells/ml for human and 0.201 mg protein/ml for 6E+5 cells/ml for rat. The presence of the reference drug and the potential metabolite was checked by LC/MS/MS during the assay in each sample.

human hepatocytes = assay: Metabolic stability in human hepatocytes; type: in vitro ADME; details: for Clint: 4.00E+05 cells/ml, 10^-7 M
Description: as §3, §4

[3] = Metabolic stability in rat microsomes (% remaining); type: in vitro ADME
Description: (§5) 0.1M Tris HCl buffer at pH 7.4 containing 5 mM EDTA.
(§6) To a 50 mL falcon tube containing 2.79 mL of dilution buffer were added 0.429 mL of NADPH-regenerating soln. A and 0.079 mL of NADPH-regenerating soln. B […]
(§7) […] A 50 mL falcon tube containing 3.32 mL of dilution buffer was prewarmed at 37° C. for 15 min. (at least 10 min.) 0.178 mL of microsome (24.6 mg/mL) were added to the prewarmed dilution buffer. The protein concentration of this microsome preparation was 1.25 mg/mL.
(§8) Sample (Test Compound)—Original and Intermediate Stock Solutions:
(§9) 100 μM intermediate solution of the test compound from the original stock solution were prepared using the dilution buffer. A 5 μM solution was prepared by diluting the 100 μM intermediate solution using dilution buffer.
(§10) (The experiments were conducted in 1.5 mL eppendorf micro centrifuge tubes) 0 minutes incubation. Procedure: a. Add 100 μL of prewarmed microsomes b. Add 50 μL of 5 μM solution of the test compound. c. Add 500 μL of cold stop solution (ice cold Methanol) d. Add 100 μL of NADPH cofactor solution to the eppendorf. a. Vortex mix the eppendorf. […]
(§11) b. Add 100 μL of NADPH cofactor solution to the eppendorf. c. Add 50 μL of 5 μM solution of the test compound. d. Add 100 μL of prewarmed microsomes e. Incubate the eppendorf at 37° C. 300 rpm for ‘t’ min. on a thermomixer. f. Remove the eppendorf from thermomixer g. Add 500 μL of cold stop solution (ice cold Methanol) h. Vortex mix the eppendorf.
(§12) Both the ‘0’ and ‘t’ minutes incubated samples were centrifuged at 15, 000 rcf at 4° C. for 15 min. 500 μL of the supernatant solution was removed and subject it to LC/MS analysis (SIM—Selected Ion Monitoring) […]
(§13) Results are expressed as % test compound remaining=(MS Area response of T min sample/MS Area response of ‘0’ min sample)*100. The MS area used is an average of duplicate injections.
(§14) Time points=0, 15, 30 and 60 min. for each test compound
(§15) 2 μM Imipramine—5 min. and 2 μM Imipramine—15 min. incubation was used as a positive control for the rat and mouse liver microsome stability experiments.

[4] = Metabolic stability in mouse microsomes (% remaining); type: in vitro ADME
Description: as §5, §6, §7, §8, §9, §10, §11, §12, §13, §14, §15

[5] = system: ischemia-reperfusion induced heart failure; assay: Model of chronic post-ischemic heart failure in rat (ischemia-reperfusion injury); type: in vivo; details: 5 mg/kg/d in drinking water, 3 months
Description: Chronic heart failure was induced in male wistar rats (224-240 g, 10-11 weeks of age) by ischemia-reperfusion (I/R) injury. For I/R protocol, the left anterior descending (LAD) coronary artery was occluded for 1 h. Drug treatment (5 mg/kg/d or 10 mg/kg/d in drinking water) was initiated 1 week after reperfusion and was maintained for a 3 month study period. […] Cardiac specimens were also analyzed to assess hypertrophy and collagen content. The study design is depicted in FIG. 3. Experiments were performed in a blinded manner. On parameters measured over time, comparison of Sham versus Vehicle and comparison of drug treatments are analyzed by 2 way ANOVAs with repeated measures. On parameters measured at sacrifice and morphometry, comparisons of Sham versus Vehicle are analyzed by t-test and comparisons of drug treatments by 1-way ANOVA followed by Dunnett test.

| Class (metabolic bioavailability) [1] | Clint_mic rat (in vitro intrinsic clearance) [1] | MF mic % (metabolic bioavailability) [1] | Class (metabolic bioavailability) [2] | Clint_mic man (in vitro intrinsic clearance) [2] | MF mic % (metabolic bioavailability) [2] | MF rat % (rat hepatocytes) | Clint (rat hepatocytes) | MF human % (human hepatocytes) | Clint (human hepatocytes) | % remaining ([3]; 15 min) | % remaining ([3]; 30 min) | % remaining ([3]; 1 h) | % remaining ([4]; 15 min) | % remaining ([4]; 30 min) | % remaining ([4]; 1 h) | SMILES | systolic and diastolic cardiac function [5] |
| --- | --- | --- | --- | --- | --- | --- | --- | --- | --- | --- | --- | --- | --- | --- | --- | --- | --- |
| very low | 1926 ml/min/gprot | 2% | very low | 1326 ml/min/gprot | 2% | 2% | 2610 ml/min/gprot | 16% | 100 ml/min/gprot | 0% | 0% | 0% | 0% | 0% | 0% | COc1ccc2c(c1)CN(Cc1ccccc1)CCS2 [Compound C] | – |
| – | – | – | – | – | – | – | – | – | – | – | – | – | – | – | – | COc1ccc2c(c1)CN(CC(=O)O)CCS2 [A] | failed to improve |
| very low | 823 ml/min/gprot | 5% | very low | 285 ml/min/gprot | 6% | 3% | 1334 ml/min/gprot | 3% | 693 ml/min/gprot | 1% | 0% | 0% | 0% | 0% | 0% | COc1ccc2c(c1)CN(Cc1ccc(O)cc1)CCS2 [B] | – |
